The record followed here is patent publication US10377718B2, “Apelin receptor (APJ) agonists and uses thereof” (Research Triangle Institute, priority 2014, dated 2019).

The target in one assay is T1, apelin receptor (APJ) (Homo sapiens, UniProt P35414).
T1 sequence (P35414 1-380): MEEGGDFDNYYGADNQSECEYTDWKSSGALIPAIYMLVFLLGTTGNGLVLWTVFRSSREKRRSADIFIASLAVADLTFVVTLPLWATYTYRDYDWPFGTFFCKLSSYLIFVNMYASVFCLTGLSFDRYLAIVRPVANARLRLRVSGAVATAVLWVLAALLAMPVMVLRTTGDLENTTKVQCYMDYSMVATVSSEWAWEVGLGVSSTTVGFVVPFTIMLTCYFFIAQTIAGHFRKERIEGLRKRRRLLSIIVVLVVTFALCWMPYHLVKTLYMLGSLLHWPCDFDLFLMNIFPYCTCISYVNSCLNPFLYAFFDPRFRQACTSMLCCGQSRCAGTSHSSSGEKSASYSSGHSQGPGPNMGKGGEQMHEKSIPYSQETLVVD
The assay can be described thus: in vitro apelin agonist activity (methods of Giddings et al., Apelin-13 as positive control). Format: cell-based. The note with it: apelin agonist activity, Giddings et al. method; read-out: agonist activity (EC50). An excerpt:
The compounds above were studied for their in vitro activity as apelin agonists using the methods described by Giddings et al. Giddings et al., 2010 Int J High Thro Screen. 1:39-47, the contents of which are hereby incorporated by reference in its entirety.

The next assay concerns C57BL/6 mice. The assay can be described thus: in vivo blood pressure lowering activity, non-invasive blood pressure and heart rate after IP injection. Also noted: Systolic Baseline / Diastolic Baseline: unit not given here. The note with it: for Diastolic Baseline / HR Baseline / Mean pressure Baseline / Systolic Baseline: baseline before dosing; for Diastolic % change / HR % change / Mean pressure % change / Systolic % change: postdose vs baseline; for HR Postdose: in bpm (unit assumed); for Diastolic Postdose / Mean pressure Postdose / Systolic Postdose: in mmHg (unit assumed). As to the method: The compounds were also assayed for blood pressure activity using C57BL/6 mice and the procedure described by Tatemoto et al. The novel peptide apelin lowers blood pressure via a nitric oxide-dependent mechanism. Regul Pept. 2001; 99: 87-92. […] Studies have been published citing reductions in blood pressure occur following peptide apelin administration. Apelin-13 was used as a positive control. Knockout C57BL/6 mice lacking APJ have cardiovascular deficiencies. […] Charo et al. Am J Physiol Heart Circ Physiol. 2009 November 297(5):[…] et al. J Physiol Biochem. 2007 December; 63(4):359-73. Blood pressure measurements in these species of mice have been reported in the literature. […] et al. Am J Physiol Heart Circ Physiol. 2003 February; 284(2):[…]-74. On the first day of the study, 11 animals were treated with apelin-13, 11 with vehicle alone, and 11 as sham controls. The two later groups were used to determine effects (if any) of the vehicle or injection alone on blood pressure (BP). The experiment was conducted as follows: The animals were restrained and a baseline measurement taken for 5 min. Animals were injected and immediately monitored for 15 minutes. The effect of test agents should be apparent within this time. Tatemoto et al. reported that the effects of Apelin-13 were apparent within minutes. Tatemoto et al. 2001 Immediately following dosing, blood pressure (diastolic, systolic and mean pressure) and heart rate for each animal was recorded for up to 15 minutes using a Kent Scientific CODA Non-Invasive Blood Pressure System. […] On day 2-5 a similar protocol was used in increasing doses. The animals were randomized daily in three groups of 11 to receive either of the two experimental compounds by IP injection. […] At the end of the 5-day dosing period, all animals were humanely euthanized. [table]

pEC50: −log10 of the molar value.

As for `CCCCNC(=O)C[C@H](CC(C)C)NC(=O)c1cc(-c2c(OC)cccc2OC)n(CC(C)C)n1` [compound 143, (S)-N-(1-(Butylamino)-5-methyl-1-oxohexan-3-yl)-5-(2,6-dimethoxyphenyl)-1-isobutyl-1H-pyrazole-3-carboxamide], the pEC50 at apelin receptor (APJ) is over 5.00. In the assay on C57BL/6 mice (Day 2, 1 mg/kg IP), the “Diastolic Baseline” value was determined as 127, the “HR Baseline” value stood at 706, the “Mean pressure Baseline” value was found to be 138 and the “Systolic Baseline” value came out at 161. For the same molecule, in the assay with C57BL/6 mice (Day 2, 1 mg/kg IP), the Diastolic % change was determined as 1%, the HR % change was found to be 3%, the “Mean pressure % change” value came to 0% and the Systolic % change is recorded as −1%. Further, in the assay on C57BL/6 mice (Day 2, 1 mg/kg IP), the “HR Postdose” value turned out to be 727, the “Diastolic Postdose” value came out at 129, the “Mean pressure Postdose” value stood at 139 and the “Systolic Postdose” value is recorded as 160. In addition, in the assay with C57BL/6 mice (Day 3, 3 mg/kg IP), the “Diastolic Baseline” value was found to be 132, the “HR Baseline” value was 665, the “Mean pressure Baseline” value is on record as 142 and the “Systolic Baseline” value is 163. Besides, in the assay with C57BL/6 mice (Day 3, 3 mg/kg IP), the Diastolic % change is recorded as −4%, the HR % change was determined as 15%, the “Mean pressure % change” value is recorded as −4% and the Systolic % change is −3%. Also, in the assay on C57BL/6 mice (Day 3, 3 mg/kg IP), the “HR Postdose” value is 763, the “Diastolic Postdose” value is 127, the “Mean pressure Postdose” value was determined as 137 and the “Systolic Postdose” value is 158. Also, in the assay with C57BL/6 mice (Day 4, 10 mg/Kg IP), the “Diastolic Baseline” value was found to be 131.3, the “HR Baseline” value was determined as 669.3, the “Mean pressure Baseline” value is on record as 143 and the “Systolic Baseline” value is 167.5. Further, in the assay on C57BL/6 mice (Day 4, 10 mg/Kg IP), the Diastolic % change is −5%, the HR % change was 11%, the “Mean pressure % change” value is reported as −6% and the Systolic % change is −6%. In the assay with C57BL/6 mice (Day 4, 10 mg/Kg IP), the “HR Postdose” value was 745, the “Diastolic Postdose” value turned out to be 124.2, the “Mean pressure Postdose” value worked out at 134.8 and the “Systolic Postdose” value is 157.1. In the assay on C57BL/6 mice (Day 5, 30 mg/Kg IP), the “Diastolic Baseline” value worked out at 130, the “HR Baseline” value amounted to 733.9, the “Mean pressure Baseline” value was 141 and the “Systolic Baseline” value is on record as 164.1. In the assay with C57BL/6 mice (Day 5, 30 mg/Kg IP), the Diastolic % change was −9%, the HR % change was −2%, the “Mean pressure % change” value is reported as −9% and the Systolic % change was −8%. In the assay on C57BL/6 mice (Day 5, 30 mg/Kg IP), the “HR Postdose” value came out at 722.8, the “Diastolic Postdose” value is on record as 118.8, the “Mean pressure Postdose” value amounted to 128.9 and the “Systolic Postdose” value turned out to be 150.2.
With `COc1cccc(OC)c1-c1cc(C(=O)N[C@H](CC(=O)NC2CCC2)CC(C)C)nn1CC(C)C` [compound 173], the negative-log EC50 (pEC50) at apelin receptor (APJ) is over 5.00. In addition, in the assay with C57BL/6 mice (Day 2, 1 mg/kg IP), the “Diastolic Baseline” value is reported as 114, the “HR Baseline” value came to 681, the “Mean pressure Baseline” value was 126 and the “Systolic Baseline” value is listed as 151. Further, in the assay with C57BL/6 mice (Day 2, 1 mg/kg IP), the Diastolic % change was determined as 3%, the HR % change turned out to be 5%, the “Mean pressure % change” value worked out at 1% and the Systolic % change was −1%. Further, in the assay with C57BL/6 mice (Day 2, 1 mg/kg IP), the “HR Postdose” value amounted to 716, the “Diastolic Postdose” value came out at 118, the “Mean pressure Postdose” value amounted to 128 and the “Systolic Postdose” value is given as 149. For the same molecule, in the assay with C57BL/6 mice (Day 3, 3 mg/kg IP), the “Diastolic Baseline” value is 127, the “HR Baseline” value was determined as 661, the “Mean pressure Baseline” value came out at 136 and the “Systolic Baseline” value is 156. In addition, in the assay with C57BL/6 mice (Day 3, 3 mg/kg IP), the Diastolic % change was 2%, the HR % change stood at 12%, the “Mean pressure % change” value is 2% and the Systolic % change came to 2%. In the assay on C57BL/6 mice (Day 3, 3 mg/kg IP), the “HR Postdose” value turned out to be 738, the “Diastolic Postdose” value is on record as 129, the “Mean pressure Postdose” value was determined as 139 and the “Systolic Postdose” value is recorded as 159. Moreover, in the assay with C57BL/6 mice (Day 4, 10 mg/Kg IP), the “Diastolic Baseline” value is listed as 114.9, the “HR Baseline” value is recorded as 682.5, the “Mean pressure Baseline” value was 126.3 and the “Systolic Baseline” value stood at 150.5. Moreover, in the assay on C57BL/6 mice (Day 4, 10 mg/Kg IP), the Diastolic % change stood at 4%, the HR % change is recorded as 10%, the “Mean pressure % change” value was 2% and the Systolic % change was 0%. In the assay on C57BL/6 mice (Day 4, 10 mg/Kg IP), the “HR Postdose” value is recorded as 749.4, the “Diastolic Postdose” value is 119.3, the “Mean pressure Postdose” value is 129.2 and the “Systolic Postdose” value is listed as 150. In addition, in the assay with C57BL/6 mice (Day 5, 30 mg/Kg IP), the “Diastolic Baseline” value is recorded as 122.2, the “HR Baseline” value came out at 701.1, the “Mean pressure Baseline” value is 133 and the “Systolic Baseline” value was found to be 155.7. Also, in the assay on C57BL/6 mice (Day 5, 30 mg/Kg IP), the Diastolic % change was −4%, the HR % change is recorded as 3%, the “Mean pressure % change” value was −4% and the Systolic % change is on record as −5%. In the assay with C57BL/6 mice (Day 5, 30 mg/Kg IP), the “HR Postdose” value worked out at 721.7, the “Diastolic Postdose” value came to 117.5, the “Mean pressure Postdose” value turned out to be 127.4 and the “Systolic Postdose” value is 148.2.
For `COCCNC(=O)C[C@H](CCN1CCCCC1)NC(=O)c1cc(-c2c(OC)cccc2OC)n(CC(C)C)n1` [compound 249], the pEC50 at apelin receptor (APJ) is over 5.00.
Same read-out and setting: as for `COc1cccc(OC)c1-c1cc(C(=O)N[C@@H](CCN2CCCCC2)CC(=O)O)nn1CC(C)C` [compound 251], the figure is over 5.00; as for `COCCN(C)C(=O)[C@H](CCC1CCCCC1)NC(=O)c1cc(-c2c(OC)cccc2OC)n(CC(C)C)n1` [compound 256], over 5.00; as for `COc1cccc(OC)c1-c1cc(C(=O)NC(CC(=O)O)C2CCCCC2)nn1-c1ccc(F)cc1` (stereo not drawn) [compound 257], over 5.00.
Still for that read-out and setting: as for `COC(=O)CNC(=O)CC(NC(=O)c1cc(-c2c(OC)cccc2OC)n(-c2ccc(F)cc2)n1)C1CCCCC1` (stereo not drawn) [compound 258], the figure is over 5.00.
Same read-out and setting: as for `C=C[C@@H](CC(=O)NC1CCC1)NC(=O)c1cc(-c2c(OC)cccc2OC)n(C2CCCC2)n1` [compound 263], the figure is over 5.00.
For the molecule `COc1cccc(OC)c1-c1cc(C(=O)N[C@@H](CCC2CCCCC2)Cc2nnn[nH]2)nn1CC(C)C` [compound 265], the pEC50 at apelin receptor (APJ) is over 5.00.

What is called pEC50 is −log10 of the EC50, conventionally taken in molar units.
